According to patent US9883691B2, “Food and beverage products containing 1,3-propanediol and methods of modifying flavor release using 1,3-propanediol” (Kraft Foods Group Brands LLC, priority 2012, dated 2018):
Entries after “also recorded” stand apart in the source; their conditions may differ.

How the values were obtained:
Assay type in all cases: physicochemical
[1] = PTR-MS headspace release with various non-aqueous liquids (diols) at 0.05:100 (Example 3); details: ratio 0.05:100; for PTR-MS headspace release in 1,3-butanediol: non-aqueous liquid 1,3-butanediol; for PTR-MS headspace release in 1,3-butanediol / PTR-MS headspace release in 1,3-propanediol / PTR-MS headspace release in 1,4-butanediol / PTR-MS headspace release in 1,7-heptanediol / PTR-MS headspace release in Propylene glycol: diluted in water; for PTR-MS headspace release in 1,3-propanediol: non-aqueous liquid 1,3-propanediol; for PTR-MS headspace release in 1,4-butanediol: non-aqueous liquid 1,4-butanediol; for PTR-MS headspace release in 1,7-heptanediol: non-aqueous liquid 1,7-heptanediol; for PTR-MS headspace release in Propylene glycol: non-aqueous liquid propylene glycol
Experimental: […]. The flavoring was then diluted in water for analysis. The final concentration of each compound was held constant at 8 ppm except furfuryl mercaptan was included at 1.6 ppm to maintain a constant flavor level in the resulting beverage while the non-aqueous liquid varied but the ratio of each compound to non-aqueous liquid was held constant at 0.05:100. A variety of non-aqueous liquids were evaluated, including 1,4-butandiol; 1,7-heptandiol; 1,3-butandiol, propylene glycol, and 1,3-propanediol.
Samples were analyzed by PTR-MS as described in Example 1.
Percent suppression was calculated by the following formula: (I1-3-diol−Ialternate diol)/Ialternate diol×100.

[2] = PTR-MS headspace release from stored beverages, water/solvent experiment (Example 4); details: beverage stored refrigerated; 1.5, 24, 48 and 72 hours; Tukey-Kramer
Experimental: 0.86 grams of the flavor concentrate was then added to 100 grams of either propylene glycol or 1,3-propanediol to provide diluted concentrates. […].
The beverages were then stored in sealed containers in a refrigerator. The container was opened five times over the course of the experiment and therefore represented a beverage in a sealed container being opened for multiple uses. 15 gram samples were weighed into a 4 ounce cup and analyzed at 1.5 hours, 24 hours, 48 hours, and 72 hours after storage.
The samples were analyzed in triplicate by PTR-MS as described below to determine impact of 1,3-propanediol or propylene glycol on release of the flavors from the beverage. The PTR-MS was performed as follows. A sampling apparatus was needed in conjunction with the PTR-MS inlet to prevent variations caused by headspace kinetics. The sampling apparatus used includes a 4 ounce sample vessel equipped with a 2-hole lid which may be sealed by an adhesive film to allow equilibration. […]. The holes were equal sized (˜2 mm diameter) and match the outer diameter of the PTR-MS inlet line. The flow of the dilution gas into the vessel was regulated by the vacuum and proportional valve of the PTR-MS inlet system. […] The 2 holes in the lid were equidistant from the edge of the vessel (˜20 mm) and ˜30 mm from each other. The PTR-MS inlet was braced by clamps in a fixed position vertically above the laboratory bench (˜55 mm) and a silicone rubber depth gauge was affixed to the PTR-MS inlet tubing and set at 18 mm. The PTR-MS inlet was consistently oriented in a vertical position […] below the inside lid of the vessel and 19 mm above the sample in the vessel. The sample vessel was then held in place during sampling according to the depth gauge on the inlet line and the vessel was subsequently supported on the bench by a 10 mm plastic spacer.
15 grams of the sample to be tested (e.g., food or beverage product containing 1,3-propanediol) are added to the vessel and the vessel is sealed and allowed to equilibrate at room temperature (˜22° C.) for 90 minutes. At the time of sampling, the seal was removed from both the sampling hole and the dilution gas hole in the lid and the vessel was immediately affixed to the PTR-MS inlet via the sampling hole. The real-time released flavor was measured from the headspace of the sample vessel for two minutes (according to the conditions listed in Table 1 above).
The data was analyzed using PTR-MS Viewer, Version 3.0.0.101 (Ionicon Analytik G.m.b.H). The point of maximum intensity for each compound of interest was determined and recorded according to the PTR-MS Viewer software. The maximum intensity in counts over the timescale for each compound of interest was used for data analysis as it reflected the static equilibrium headspace concentration in the system at the moment of seal removal. Due to the necessity of a dilution gas, the volatile concentration decreased over time as the compounds of interest re-equilibrated to a state of dynamic equilibrium in the headspace.
The statistical differences were determined by Tukey-Kramer Honest […]. […].

[3] = PTR-MS headspace release in neat solvent, solvent/solvent experiment (Example 5); design: key to Release Differences: “Z” indicates that 1,3-propanediol had higher equilibrium maximum (meaning more of the flavor was released in 1,3-propanediol); “P” indicates that propylene glycol had higher equilibrium maximum; “-” indicates no statistical difference (95% significance) between the two samples; details: 1.5 hrs equilibration; for Release Differences: 1,3-propanediol versus propylene glycol as sole solvent, 95% significance
Experimental: […]. Then the head space was analyzed as described above.
0.86 grams of the concentrate was added to 100 grams of either propylene glycol or 1,3-propanediol to provide a 1,3-propanediol diluted concentrate or propylene glycol diluted concentrate. The diluted concentrates were then further diluted as outlined in Table 10 below.
A 15 gram sample was weighed into a 4 oz vessel and analyzed at 1.5 hrs. of equilibration time as described in the method of Example 4.

[4] = PTR-MS headspace release at various flavor compound to 1,3-propanediol or PG ratios (Example 2); details: for release suppressed in the presence of 1,3-propanediol: 10% cut-off for significant difference, relative to PG; for Percent Suppression by 1,3-propanediol: (IZ−IPG)/IPG×100
Experimental: The compounds listed below in Table 3 were added together to provide a liquid flavoring to analyze the role, if any, of the amount of 1,3-propanediol on flavor release. […] The amount of each flavor compound in the beverage was held constant at 8 ppm except furfuryl mercaptan was included at 1.6 ppm while the amount of propylene glycol or 1,3-propanediol varied.
The percent suppression was calculated using the following formula: (IZ−IPG)/IPG×100, where I is peak height, “Z” is 1,3-propanediol and “PG” is propylene glycol.

[5] = flavor/1,3-propanediol ratio of 0.05:100
[6] = ratio 0.005:100, negative = suppressed vs PG

Structure (SMILES)	PTR-MS headspace release in 1,3-butanediol [1]	PTR-MS headspace release in 1,3-propanediol [1]	PTR-MS headspace release in 1,4-butanediol [1]	PTR-MS headspace release in 1,7-heptanediol [1]	PTR-MS headspace release in Propylene glycol [1]	Percent suppression by 1,3-butanediol relative to 1,4-butanediol [1]	effect of 1,3-propanediol on flavor release relative to propylene glycol, water/solvent [2]	Release Differences [3]	release suppressed in the presence of 1,3-propanediol [4]	effect of 1,3-propanediol on release [4, 5]	Percent Suppression by 1,3-propanediol [4, 6]	Percent Suppression by 1,3-propanediol ([4]; ratio 0.05:100)	Percent Suppression by 1,3-propanediol ([4]; ratio 5:100)	Percent Suppression by 1,3-propanediol ([4]; ratio 15:100)	effect of 1,3-propanediol on release ([4]; flavor to 1,3-propanediol ratio of about 0.005:100 to 15:100)	effect of 1,3-propanediol on release ([4]; ratio 0.005:100)	release in 1,3-propanediol versus propylene glycol, solvent/solvent [3]
CC(=O)O [Acetic acid]	16.9	9.90	15.6	13.4	13.70	8.0%	little effect	P	suppressed	significant suppression effect	−0.5%	−27.7%	−1.7%	−9.0%			
CC(C)=CCCC(C)=CC=O [Citral, 3,7-dimethyl-2,6-octadienal]	6.0	5.83	13.5	24.3	18.80	−124.2%	significantly suppressed release		suppressed		−70.0%	−69.0%	−45.4%	−58.2%	significant suppression effect	still suppressed	
CCCCCCCCCC(=O)OCC [Ethyl decanoate]	117.0	23.9	258.0	131.3	16.84	−120.5%	little effect				−2.0%	41.9%	17.8%	−12.4%			
SCc1ccco1 [Furfuryl mercaptan]	1.3	0.55	0.3	2.1	0.51	73.9%	significantly increase the rate of release				31.8%	7.8%	15.9%	−13.1%			
COc1ccccc1O [Guaiacol]	28.4	18.95	39.9	36.2	36.50	−40.3%	significantly suppressed release		suppressed	significant suppression effect	−3.4%	−48.1%	−19.9%	0.2%			
C=C(C)[C@H]1CC=C(C)CC1 [Limonene]	13.5	4.9	59.7	59.5	6.55	−343.5%	little effect; also recorded: no significant difference	Z	suppressed		−0.1%	−25.2%	−34.8%	23.5%			released faster in 1,3-propanediol
CCCCCCCC=O [Octanal]	42.9	10.70	56.0	67.0	11.95	−30.5%	significantly suppressed release				2.6%	−10.5%	−21.1%	−2.5%			
CCCCCCCCO [Octanol]	4.0	1.05	5.1	6.2	1.19	−27.5%	significantly suppressed release; also recorded: released faster in propylene glycol	P			8.5%	−11.4%	−19.1%	−0.6%			no significant difference
Cc1nc(C)c(C)nc1C [Tetramethyl pyrazine]	12.3	9.89	20.5	22.0	17.85	−67.3%	little effect	Z	suppressed	significant suppression effect	10.2%	−44.6%	−17.8%	−5.6%			
